Patent EP2441755A1 (Almirall, S.A., priority 2010, dated 2012)
Read-outs that look alike come from different tables or passages of the source.

What was measured:
LAD2 cells = LAD2 cells assay (degranulation, β-hexosaminidase release); format: cell-based; conditions: Homo sapiens
Excerpt: LAD2 is a human mast cell line depending on stem cell factor for its survival, maturation and differentiation. This mast cell line was established by the NIH from bone marrow aspirates from a patient with mast cell sarcoma. LAD2 cells resemble CD34+ - derived human mast cells as they have granules containing tryptase, histamine and β-hexosaminidase. They also express c-kit and FcεRI (Kirshenbaum, et al., Leukemia Research 27: 677-682, 2003).
Sensitization of LAD2 cells
Cells were sensitized (0.2x10^6 cells/ml) in its normal growth factor (Complete StemPro-34 SFM, Gibco 10639-011 containing StemPro-34 nutrient supplement (1/40); glutamine (2 mM) and supplemented with 100 ng/ml SCF) by adding 100 ng/ml of biotin-labeled IgE (USBiological) overnight (16-18 h, 37º, 5% CO2) in a humidified atmosphere (90%).
Compounds were prepared from a 10^-2M stock in 100% DMSO to give seven successive 1/3 dilutions in DMSO. From each concentration, 2 further 1/10 dilutions were prepared in release buffer (137 mM NaCl, 2.70 mM KCI, 0.4 mM NaH2PO4, 5.6 mM (D)-glucose, 1.8 mM CaCl2, 1.3 mM MgSO4, 0.025% BSA). Finally, 5 µl from each diluted concentration were transferred into the assay plate (flat 96-well Nunc). The final compound concentrations tested ranged from 1x10^-5M to […] with a final proportion of DMSO in the assay of 0.1 %. Control wells were treated with 0.1 % DMSO.
Sensitized LAD2 cells were centrifuged (300 g, 3 min, R.T.) and washed 2 times with release buffer. Cells were resuspended in release buffer and adjusted to a density of 0.2x10^6/ml. 45 µl of the adjusted cells were transfered to the assay plate (∼10,000cells/well) containg 5 µl of the final compound concentrations. LAD2 cells were incubated with the compound for 30 min (37 °C, 5% CO2 90% of humidity) and then activated with 125 ng/ml of streptavidin (Pierce 21125) for 30 min (37 °C, 5% CO2, 90% of humidity). After the activation, cells were centrifuged at 1200 g, 10 min, 12 °C and supernatats were removed and transfered to another well for determination of released β-hexosaminidase. Empty wells were filled with 50 µl of release buffer for determination of intracellular β-hexosaminidase. Cells were lysed with 2 cycles of freeze-thaw.
Cells were incubated for 90 minutes, 37 °C with 1 mM β-hexosaminidase substrate (p-nitrophenyl N-acetyl-D-glucosamide, in citric buffer, pH 4.5). Reaction was stopped with 0.4 M glycine solution (pH 10.0) and the plate is read immediately at 405 nm.

[1] = biological target: T1, Recombinant human full-length Syk (Homo sapiens, UniProt P43405); test: Syk enzyme assay - radioactive filtration kinase assay; format: biochemical
T1 construct: Recombinant human full-length Syk was supplied by Millipore; purchased Millipore
Description: Syk Enzyme assay- Radioactive filtration kinase assay
Recombinant human full-length Syk was supplied by Millipore. The activity of Syk kinase was assessed using a radioactive filtration kinase assay. […] The reaction was initiated by the addition of 14.5 µl of 0.36 µCi [γ-^33P] ATP (10 mCi/ml, PerkinElmer). This was prepared in a half-area NBS plate (Corning) and allowed to stand at room temperature for 40 min. 15 µl of reaction mixture was transferred to a filter plate (Millipore) previously pre-wetted with a solution of 75 mM phosphoric acid. The reaction was terminated with the addition of 200 µl phosphoric acid. The filter plate was washed three times under vacuum on a vacuum manifold (Millipore cat# MSVMHTS00) at 8" Hg vacuum level with 200 µl phosphoric acid per wash. 30 µl Optiphase™ Supermix (PerkinElmer) was added to each test well and allowed to incubate for at least 1 h before counting. Radioactivity counting was performed in a Wallac MicroBeta®, and the tyrosine phosphorylation activity by Syk was calculated.

[2] = 0.5 h, IgE-sensitized LAD2 cells, 30 min with compound, activated with 125 ng/ml streptavidin, released β-hexosaminidase, read-out: LAD2IC50
[3] = Syk 1nM final, poly-GT 100 µg/ml, [γ-33P] ATP, 40 min at room temperature, read-out: Syk IC50

O=C(Nc1cc(Nc2cnccn2)nc(-c2ccnc(N3CCNCC3)c2)c1)c1cccc(C(F)(F)F)c1 [Example 76, N-[2'-Piperazin-1-yl-6-(pyrazin-2-ylamino)-2,4'-bipyridin-4-yl]-3-(trifluoromethyl) benzamide]
IC50 (LAD2 cells; [2]): 310 nM | IC50 [1, 3]: 7 nM

O=C(Nc1cc(Nc2cnccn2)nc(-c2ccnc(N3CCNCC3)c2)c1)c1cncnc1 [Example 95, N-[2'-Piperazin-1-yl-6-(pyrazin-2-ylamino)-2,4'-bipyridin-4-yl]pyrimidine-5-Carboxamide]
IC50 (LAD2 cells; [2]): 320 nM | IC50 [1]: 9 nM

FC(F)(F)c1ccnc(Nc2cccc(-c3cccc(N4CCNCC4)c3)n2)c1 [Example 23, N-[6-(3-Piperazin-1-ylphenyl)pyridin-2-yl]-4-(trifluoromethyl)pyridin-2-amine]
IC50 (LAD2 cells; [2]): 331 nM | IC50 [1]: 0.56 nM

O=C(CCc1ccccc1)Nc1cc(Nc2cnccn2)nc(-c2ccnc(N3CCNCC3)c2)c1 [Example 82, 3-Phenyl-N-[2'-piperazin-1-yl-6-(pyrazin-2-ylamino)-2,4'-bipyridin-4-yl]propanamide]
IC50 (LAD2 cells; [2]): 280 nM | IC50 [1, 3]: 8 nM

O=C(Nc1cc(Nc2cnccn2)nc(-c2ccnc(N3CCNCC3)c2)c1)c1ccc(C(=O)O)nc1 [Example 96, 5-({[2'-Piperazin-1-yl-6-(pyrazin-2-ylamino)-2,4'-bipyridin-4-yl]amino}carbonyl) pyridine-2-Carboxylic acid]
IC50 (LAD2 cells; [2]): 200 nM | IC50 [1]: 10 nM

OC1CCN(c2cc(Nc3cnccn3)nc(-c3ccnc(N4CCNCC4)c3)c2)CC1 [Example 130, 1-(2'-(Piperazin-1-yl)-6-(pyrazin-2-ylamino)-2,4'-bipyridin-4-yl)piperidin-4-ol]
IC50 (LAD2 cells; [2]): 400 nM | IC50 [1, 3]: 8.2 nM

O=C(C[C@H](Cc1ccccc1)C(=O)O)Nc1cc(Nc2cnccn2)nc(-c2ccnc(N3CCNCC3)c2)c1 [Example 98, (2S)-2-Benzyl-4-oxo-4-{[2'-piperazin-1-yl-6-(pyrazin-2-ylamino)-2,4'-bipyridin-4-yl]amino}butanoic acid]
IC50 (LAD2 cells; [2]): 82 nM | IC50 [1, 3]: 16 nM

FC(F)(F)c1ccnc(Nc2cccc(-c3cccc(C4CCNCC4)c3)n2)c1 [Example 22, N-[6-(3-Piperidin-4-ylphenyl)pyridin-2-yl]-4-(trifluoromethyl)pyridin-2-amine]
IC50 (LAD2 cells; [2]): 368 nM | IC50 [1, 3]: 1.18 nM

COC(=O)c1cccc(C(=O)Nc2cc(Nc3cnccn3)nc(-c3ccnc(N4CCNCC4)c3)c2)c1 [Example 87, Methyl 3-({[2'-piperazin-1-yl-6-(pyrazin-2-ylamino)-2,4'-bipyridin-4-yl]amino}carbonyl)benzoate]
IC50 (LAD2 cells; [2]): 330 nM | IC50 [1, 3]: 6 nM

Cc1ccnc(Nc2cccc(-c3ccnc(N4CCNCC4)c3)n2)c1 [Example 14, N-(4-Methylpyridin-2-yl)-2'-piperazin-1-yl-2,4'-bipyridin-6-amine]
IC50 (LAD2 cells; [2]): 70 nM | IC50 [1]: 14 nM

NCCc1cccc(-c2cccc(Nc3cc(C(F)(F)F)ccn3)n2)c1 [Example 20, N-{6-[3-(2-Aminoethyl)phenyl]pyridin-2-yl}-4-(trifluoromethyl)pyridin-2-amine]
IC50 (LAD2 cells; [2]): 186 nM | IC50 [1, 3]: 8 nM

Nc1cc(Nc2cnccn2)nc(-c2ccnc(N3CCNCC3)c2)c1 [Example 127, 2'-Piperazin-1-yl-N^6-pyrazin-2-yl-2,4'-bipyridine-4,6-diamine]
IC50 (LAD2 cells; [2]): 118 nM | IC50 [1]: 4 nM

O=C(O)C[C@H](Cc1ccccc1)NC(=O)c1cccc(C(=O)Nc2cc(Nc3cnccn3)nc(-c3ccnc(N4CCNCC4)c3)c2)c1 [Example 109, (3S)-4-Phenyl-3-{[3-({[2'-piperazin-1-yl-6-(pyrazin-2-ylamino)-2,4'-bipyridin-4-yl]amino}carbonyl)benzoyl]amino}butanoic acid]
IC50 (LAD2 cells; [2]): 100 nM | IC50 [1, 3]: 13 nM

COc1ccc(C(=O)Nc2cc(Nc3cnccn3)nc(-c3ccnc(N4CCNCC4)c3)c2)cc1 [Example 81, 4-Methoxy-N-[2'-piperazin-1-yl-6-(pyrazin-2-ylamino)-2,4'-bipyridin-4-yl]benzamide]
IC50 (LAD2 cells; [2]): 430 nM | IC50 [1, 3]: 12 nM

Cc1cc(C(=O)Nc2cc(Nc3cnccn3)nc(-c3ccnc(N4CCNCC4)c3)c2)n(C)n1 [Example 83, 1,3-Dimethyl-N-[2'-piperazin-1-yl-6-(pyrazin-2-ylamino)-2,4'-bipyridin-4-yl]-1H-pyrazole-5-Carboxamide]
IC50 (LAD2 cells; [2]): 170 nM | IC50 [1]: 7 nM

CC(=O)Nc1cc(Nc2cnccn2)nc(-c2ccnc(N3CCNCC3)c2)c1 [Example 101, N-[2'-Piperazin-1-yl-6-(pyrazin-2-ylamino)-2,4'-bipyridin-4-yl]acetamide]
IC50 (LAD2 cells; [2]): 117 nM | IC50 [1, 3]: 8 nM

O=C(Cc1cccnc1)Nc1cc(Nc2cnccn2)nc(-c2ccnc(N3CCNCC3)c2)c1 [Example 89, N-[2'-Piperazin-1-yl-6-(pyrazin-2-ylamino)-2,4'-bipyridin-4-yl]-2-pyridin-3-ylacetamide]
IC50 (LAD2 cells; [2]): 350 nM | IC50 [1]: 4 nM

C1=C(c2cccc(-c3cccc(Nc4cnccn4)n3)c2)CCNC1 [Example 29, N-{6-[3-(1,2,3,6-Tetrahydropyridin-4-y))pheny)]pyridin-2-y)}pyrazin-2-amine]
IC50 (LAD2 cells; [2]): 183 nM | IC50 [1, 3]: 20 nM

CNc1cc(Nc2cnccn2)nc(-c2ccnc(N3CCNCC3)c2)c1 [Example 128, N^4-Methyl-2'-(piperazin-1-yl)-N^6-(pyrazin-2-yl)-2,4'-bipyridine-4,6-diamine]
IC50 (LAD2 cells; [2]): 190 nM | IC50 [1]: 4.1 nM

FC(F)(F)c1ccnc(Nc2cccc(-c3ccnc(N4CCNCC4)c3)n2)c1 [Example 26, 2'-Piperazin-1-y)-N-[4-(trifluoromethy))pyridin-2-y)]-2,4'-bipyridin-6-amine]
IC50 (LAD2 cells; [2]): 206 nM | IC50 [1]: 1.8 nM

Nc1cc(Nc2cnccn2)nc(-c2cncc(N3CCNCC3)c2)c1 [Example 138]
IC50 (LAD2 cells; LAD2, 0.5 h, read-out: LAD2IC50(nM)): 150 nM | IC50 ([1]; read-out: Syk IC50, Syk 1nM final, poly-GT 100 µg/ml, [γ-33P] ATP, 40 min at room temperature): 2.5 nM

O=C(Nc1cc(Nc2cnccn2)nc(-c2ccnc(N3CCNCC3)c2)c1)c1ccc2c(c1)OCO2 [Example 77, N-[2'-Piperazin-1-yl-6-(pyrazin-2-ylamino)-2,4' -bipyridin-4-yl]-1,3-benzodioxole-5-Carboxamide]
IC50 (LAD2 cells; [2]): 230 nM | IC50 [1, 3]: 9 nM

Cc1ccnc(Nc2cc3ccccc3c(-c3ccnc(N4CCNCC4)c3)n2)c1 [Example 52, N-(4-Methylpyridin-2-yl)-1-(2-piperazin-1-ylpyridin-4-yl)isoquinolin-3-amine]
IC50 (LAD2 cells; [2]): 434 nM | IC50 [1, 3]: 18 nM
